Reference: US20220372067A1, “3.ALPHA.-HYDROXY-17.BETA.-AMIDE NEUROACTIVE STEROIDS AND COMPOSITIONS THEREOF” (SAGE THERAPEUTICS, INC., priority 2018, published 2022)
pIC50: −log10 of the molar value.

Target: GABAA receptor (TBPS binding site), rat brain cortical membranes
Experiment: [35S]-TBPS binding assay, rat brain cortical membranes in the presence of 5 mM GABA
Conditions: inhibition of 3 nM [35S]-TBPS binding
Method: [^35S]-t-Butylbicyclophosphorothionate (TBPS) binding assays using rat brain cortical membranes in the presence of 5 mM GABA has been described (Gee et al, J. Pharmacol. Exp. Ther. 1987, 241, 346-353; Hawkinson et al, Mol. Pharmacol. 1994, 46, 977-985; Lewin, A. H et al., Mol. Pharmacol. 1989, 35, 189-194).
Briefly, cortices are rapidly removed following decapitation of carbon dioxide-anesthetized Sprague-Dawley rats (200-250 g). The cortices are homogenized in 10 volumes of ice-cold 0.32 M sucrose using a glass/teflon homogenizer and centrifuged at 1500×g for 10 min at 4° C. The resultant supernatants are centrifuged at 10,000×g for 20 min at 4° C. to obtain the P2 pellets. The P2 pellets are resuspended in 200 mM NaCl/50 mM Na—K phosphate pH 7.4 buffer and centrifuged at 10,000×g for 10 min at 4° C. This washing procedure is repeated twice and the pellets are resuspended in 10 volumes of buffer. Aliquots ([…]) of the membrane suspensions are incubated with 3 nM [^35S]-TBPS and […] aliquots of test drug dissolved in dimethyl sulfoxide (DMSO) (final 0.5%) in the presence of 5 mM GABA. The incubation is brought to a final volume of 1.0 mL with buffer. Nonspecific binding is determined in the presence of […] and ranged from 15 to 25%. Following a 90 min incubation at room temp, the assays are terminated by filtration through glass fiber filters (Schleicher and Schuell No. 32) using a cell harvester (Brandel) and rinsed three times with ice-cold buffer. Filter bound radioactivity is measured by liquid scintillation spectrometry. Non-linear curve fitting of the overall data for each drug averaged for each concentration is done using Prism (GraphPad). […] The concentration of test compound producing 50% inhibition (IC50) of specific binding and the maximal extent of inhibition (Imax) are determined for the individual experiments with the same model used for the overall data and then the means±SEM.s of the individual experiments are calculated.
Various compounds are or can be screened to determine their potential as modulators of [^35S]-TBPS binding in vitro. These assays are or can be performed in accordance with the above

Structure (SMILES) | pIC50
CCOC[C@@]1(O)CC[C@H]2[C@H](CC[C@@H]3[C@@H]2CC[C@]2(C)[C@@H](C(=O)Nc4ccc(C#N)cn4)CC[C@@H]32)C1 [Example 22] | > 7.00
CCOC[C@@]1(O)CC[C@H]2[C@H](CC[C@@H]3[C@@H]2CC[C@]2(C)[C@@H](C(=O)Nc4ncc(C#N)cc4C)CC[C@@H]32)C1 [Example 23] | 6.00 to 7.00
CCOC[C@@]1(O)CC[C@H]2[C@H](CC[C@@H]3[C@@H]2CC[C@]2(C)[C@@H](C(=O)Nc4cncc(C)n4)CC[C@@H]32)C1 [Example 24] | > 7.00
CCOC[C@@]1(O)CC[C@H]2[C@H](CC[C@@H]3[C@@H]2CC[C@]2(C)[C@@H](C(=O)Nc4cnc(C)cn4)CC[C@@H]32)C1 [Example 25] | > 7.00
CCOC[C@@]1(O)CC[C@H]2[C@H](CC[C@@H]3[C@@H]2CC[C@]2(C)[C@@H](C(=O)Nc4ncc(C#N)cc4Cl)CC[C@@H]32)C1 [Example 26] | > 7.00
CCOC[C@@]1(O)CC[C@H]2[C@H](CC[C@@H]3[C@@H]2CC[C@]2(C)[C@@H](C(=O)Nc4ccc(C#N)nc4C)CC[C@@H]32)C1 [Example 27] | > 7.00
CCOC[C@@]1(O)CC[C@H]2[C@H](CC[C@@H]3[C@@H]2CC[C@]2(C)[C@@H](C(=O)Nc4cnc(C#N)cn4)CC[C@@H]32)C1 [Example 28] | > 7.00
CCOC[C@@]1(O)CC[C@H]2[C@H](CC[C@@H]3[C@@H]2CC[C@]2(C)[C@@H](C(=O)Nc4ccc(C#N)nn4)CC[C@@H]32)C1 [Example 29] | > 7.00
CCOC[C@@]1(O)CC[C@H]2[C@H](CC[C@@H]3[C@@H]2CC[C@]2(C)[C@@H](C(=O)Nc4cc(C)nn4C)CC[C@@H]32)C1 [Example 30] | > 7.00
CCOC[C@@]1(O)CC[C@@]2(C)[C@H](CC[C@@H]3[C@@H]2CC[C@]2(C)[C@@H](C(=O)Nc4ccc(C#N)cn4)CC[C@@H]32)C1 [Example 31] | > 7.00
COC[C@@]1(O)CC[C@@]2(C)[C@@H](CC[C@@H]3[C@@H]2CC[C@]2(C)[C@@H](C(=O)Nc4cccnc4C)CC[C@@H]32)C1 [Example 32] | > 7.00
CCOC[C@@]1(O)CC[C@@]2(CC)[C@H](CC[C@H]3[C@@H]4CC[C@H](C(=O)Nc5ccc(C#N)cn5)[C@@]4(C)CC[C@@H]32)C1 [Example 33] | > 7.00
CCOC[C@@]1(O)CC[C@@]2(CC)[C@H](CC[C@H]3[C@@H]4CC[C@H](C(=O)Nc5cc(C#N)nn5C)[C@@]4(C)CC[C@@H]32)C1 [Example 35] | > 7.00
CCOC[C@@]1(O)CC[C@@]2(CC)[C@H](CC[C@H]3[C@@H]4CC[C@H](C(=O)Nc5cc(C#N)n(C)n5)[C@@]4(C)CC[C@@H]32)C1 [Example 36] | > 7.00
CCOC[C@@]1(O)CC[C@H]2[C@H](CC[C@@H]3[C@@H]2CC[C@]2(C)[C@@H](C(=O)Nc4cc(C#N)nn4C)CC[C@@H]32)C1 [Example 37] | > 7.00
COC[C@@]1(O)CC[C@H]2[C@H](CC[C@@H]3[C@@H]2CC[C@]2(C)[C@@H](C(=O)Nc4cccc(C)n4)CC[C@@H]32)C1 [Example 38] | > 7.00
COC[C@@]1(O)CC[C@H]2[C@H](CC[C@@H]3[C@@H]2CC[C@]2(C)[C@@H](C(=O)Nc4ncccc4Cl)CC[C@@H]32)C1 [Example 39] | 6.00 to 7.00
COC[C@@]1(O)CC[C@H]2[C@H](CC[C@@H]3[C@@H]2CC[C@]2(C)[C@@H](C(=O)Nc4ccc(C)nc4)CC[C@@H]32)C1 [Example 40] | > 7.00

Structure (SMILES) | pIC50
COC[C@@]1(O)CC[C@H]2[C@H](CC[C@@H]3[C@@H]2CC[C@]2(C)[C@@H](C(=O)Nc4ccc(C#N)nc4C)CC[C@@H]32)C1 [Example 41] | > 7.00
COC[C@@]1(O)CC[C@H]2[C@H](CC[C@@H]3[C@@H]2CC[C@]2(C)[C@@H](C(=O)Nc4ccc(C#N)nc4Cl)CC[C@@H]32)C1 [Example 42] | > 7.00
COC[C@@]1(O)CC[C@H]2[C@H](CC[C@@H]3[C@@H]2CC[C@]2(C)[C@@H](C(=O)Nc4ccc(C)nc4Cl)CC[C@@H]32)C1 [Example 43] | > 7.00
COC[C@@]1(O)CC[C@H]2[C@H](CC[C@@H]3[C@@H]2CC[C@]2(C)[C@@H](C(=O)Nc4nc(C)ccc4Cl)CC[C@@H]32)C1 [Example 44] | 6.00 to 7.00
COC[C@@]1(O)CC[C@H]2[C@H](CC[C@@H]3[C@@H]2CC[C@]2(C)[C@@H](C(=O)Nc4cccc(-n5ccc(C)n5)n4)CC[C@@H]32)C1 [Example 45] | > 7.00
COC[C@@]1(O)CC[C@H]2[C@H](CC[C@@H]3[C@@H]2CC[C@]2(C)[C@@H](C(=O)Nc4ccc(C(F)(F)F)nc4C)CC[C@@H]32)C1 [Example 46] | > 7.00
COC[C@@]1(O)CC[C@H]2[C@H](CC[C@@H]3[C@@H]2CC[C@]2(C)[C@@H](C(=O)Nc4ccc(-n5nccc5C)nc4C)CC[C@@H]32)C1 [Example 47] | > 7.00
COC[C@@]1(O)CC[C@H]2[C@H](CC[C@@H]3[C@@H]2CC[C@]2(C)[C@@H](C(=O)Nc4ccc(-c5ncc(F)cn5)nc4C)CC[C@@H]32)C1 [Example 48] | > 7.00
COC[C@@]1(O)CC[C@H]2[C@H](CC[C@@H]3[C@@H]2CC[C@]2(C)[C@@H](C(=O)Nc4ccc(N5CCCC5=O)nc4C)CC[C@@H]32)C1 [Example 49] | > 7.00
COC[C@@]1(O)CC[C@H]2[C@H](CC[C@@H]3[C@@H]2CC[C@]2(C)[C@@H](C(=O)Nc4cccc(N5CCCC5=O)n4)CC[C@@H]32)C1 [Example 50] | > 7.00
COC[C@@]1(O)CC[C@H]2[C@H](CC[C@@H]3[C@@H]2CC[C@]2(C)[C@@H](C(=O)Nc4cccnc4C)CC[C@@H]32)C1 [Example 51] | > 7.00
COC[C@@]1(O)CC[C@H]2[C@H](CC[C@@H]3[C@@H]2CC[C@]2(C)[C@@H](C(=O)Nc4ccc(-n5ccc(C)n5)nc4C)CC[C@@H]32)C1 [Example 52] | > 7.00
CCOC[C@@]1(O)CC[C@H]2[C@H](CC[C@@H]3[C@@H]2CC[C@]2(C)[C@@H](C(=O)Nc4c5c(nn4C)CCCC5)CC[C@@H]32)C1 [Example 54] | 6.00 to 7.00
CCOC[C@@]1(O)CC[C@H]2[C@H](CC[C@@H]3[C@@H]2CC[C@]2(C)[C@@H](C(=O)Nc4ccnn4C4CCCC4)CC[C@@H]32)C1 [Example 55] | > 7.00
CCOC[C@@]1(O)CC[C@H]2[C@H](CC[C@@H]3[C@@H]2CC[C@]2(C)[C@@H](C(=O)Nc4cc(C5CC5)nn4C)CC[C@@H]32)C1 [Example 56] | > 7.00
CCOC[C@@]1(O)CC[C@H]2[C@H](CC[C@@H]3[C@@H]2CC[C@]2(C)[C@@H](C(=O)Nc4c(C#N)cnn4C)CC[C@@H]32)C1 [Example 57] | < 6.00
CCOC[C@@]1(O)CC[C@H]2[C@H](CC[C@@H]3[C@@H]2CC[C@]2(C)[C@@H](C(=O)Nc4cncc(C#N)n4)CC[C@@H]32)C1 [Example 58] | > 7.00
